pIC50: −log10 of the molar value.
Experiments:
[1] = target: T1, Son of sevenless homolog 1 (Homo sapiens, UniProt Q07889); assay: Inhibition of SOS1 in human DLD-1 cells assessed as reduction in ERK phosphorylation incubated for 1 hr by fluorescence assay; assay type: cell-based
T1 sequence (Q07889 whole entry): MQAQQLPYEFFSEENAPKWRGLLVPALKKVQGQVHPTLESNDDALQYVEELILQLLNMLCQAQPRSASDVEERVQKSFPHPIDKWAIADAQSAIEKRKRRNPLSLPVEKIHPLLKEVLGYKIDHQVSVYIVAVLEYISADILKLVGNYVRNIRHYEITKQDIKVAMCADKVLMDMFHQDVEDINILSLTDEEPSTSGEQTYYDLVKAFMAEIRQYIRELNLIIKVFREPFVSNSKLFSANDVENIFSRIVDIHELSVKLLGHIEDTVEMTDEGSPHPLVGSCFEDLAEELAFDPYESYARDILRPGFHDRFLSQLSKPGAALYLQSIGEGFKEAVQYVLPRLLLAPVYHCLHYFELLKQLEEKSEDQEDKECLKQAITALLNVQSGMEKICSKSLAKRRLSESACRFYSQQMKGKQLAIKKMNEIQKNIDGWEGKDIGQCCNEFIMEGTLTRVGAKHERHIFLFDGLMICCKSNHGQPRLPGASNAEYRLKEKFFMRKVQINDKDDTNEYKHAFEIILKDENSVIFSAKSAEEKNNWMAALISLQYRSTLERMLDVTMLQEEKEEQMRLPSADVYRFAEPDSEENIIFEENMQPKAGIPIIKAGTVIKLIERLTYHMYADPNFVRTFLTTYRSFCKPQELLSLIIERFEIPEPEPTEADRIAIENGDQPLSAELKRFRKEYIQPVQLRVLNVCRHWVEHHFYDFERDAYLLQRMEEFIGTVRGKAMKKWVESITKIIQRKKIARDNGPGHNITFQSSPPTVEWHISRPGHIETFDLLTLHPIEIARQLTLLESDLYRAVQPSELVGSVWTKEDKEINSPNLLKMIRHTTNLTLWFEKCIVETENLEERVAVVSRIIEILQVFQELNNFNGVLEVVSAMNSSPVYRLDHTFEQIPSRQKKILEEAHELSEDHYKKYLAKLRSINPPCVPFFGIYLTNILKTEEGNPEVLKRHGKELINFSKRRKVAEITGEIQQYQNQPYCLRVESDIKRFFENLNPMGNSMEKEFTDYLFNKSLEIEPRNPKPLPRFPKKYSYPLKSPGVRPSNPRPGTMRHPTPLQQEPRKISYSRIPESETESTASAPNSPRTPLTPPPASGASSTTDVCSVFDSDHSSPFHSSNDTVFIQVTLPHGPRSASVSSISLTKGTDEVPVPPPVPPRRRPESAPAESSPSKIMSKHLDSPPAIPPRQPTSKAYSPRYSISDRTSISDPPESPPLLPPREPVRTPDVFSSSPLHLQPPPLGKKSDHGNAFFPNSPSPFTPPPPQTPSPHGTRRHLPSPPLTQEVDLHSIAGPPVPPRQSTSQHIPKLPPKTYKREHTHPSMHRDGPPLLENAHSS

[2] = in vivo; details: ICR, mouse, po, 50 mg/kg
[3] = Half life in ICR mouse at 50 mg/kg, po measured up to 24 hrs by LC-MS/MS analysis; details: in vivo
[4] = Elimination rate constant in ICR mouse at 50 mg/kg, po measured up to 24 hrs by LC-MS/MS analysis; details: in vivo
[5] = in vivo; details: ICR, mouse, po, 50 mg/kg; remark: listed apart in the source
[6] = MRT in ICR mouse at 50 mg/kg, po measured up to 24 hrs by LC-MS/MS analysis; details: in vivo
[7] = in vivo; details: ICR, mouse, po, 50 mg/kg; remark: listed apart in the source
[8] = Plasma protein binding in mouse at 2 uM preincubated for 1 hr by balanced dialysis based LC-MS/MS analysis
[9] = Plasma protein binding in monkey at 2 uM preincubated for 1 hr by balanced dialysis based LC-MS/MS analysis; details: rhesus monkey
[10] = Toxicity in BALB/c nude mouse xenografted with human MIA PaCa-21 cells expressing KRAS G12C mutant assessed as weight loss at 50 mg/kg, po qd measured on day 21; details: in vivo
[11] = Toxicity in BALB/c nude mouse xenografted with human MIA PaCa-21 cells expressing KRAS G12C mutant assessed as animal death at 50 mg/kg, po qd measured on day 21; details: in vivo, 504 h
[12] = Plasma protein binding in rat at 2 uM preincubated for 1 hr by balanced dialysis based LC-MS/MS analysis
[13] = Plasma protein binding in dog at 2 uM preincubated for 1 hr by balanced dialysis based LC-MS/MS analysis
[14] = target: SOS1-KRAS (Homo sapiens, UniProt Q07889); assay: Inhibition of N-terminal His6-tagged human recombinant SOS1(564 to 1049 residues)/human recombinant KRAS G12C mutant incubated for 60 mins by HTRF assay

Row | AUC at 24 h [2] | half-life at 24 h [3] | k el at 24 h [4] | Cmax at 24 h [5] | MRT at 24 h [6] | Tmax at 24 h [7] | SMILES | pIC50 [1] | fraction unbound at 1 h, 2 µM [8] | fraction unbound at 1 h, 2 µM [9] | Activity [10] | Activity [11] | fraction unbound at 1 h, 2 µM [12] | fraction unbound at 1 h, 2 µM [13] | pIC50 [14]
1 | 3250 ng·h/mL | 20 h | 9.78e-06 s⁻¹ | 191 ng/mL | 9.58 h | 3.5 h | Cc1nc(N[C@H](C)c2cccc(C(F)F)c2F)c2cc3c(cc2n1)OCC[C@H]1CN(C)CCN31 | – | – | – | – | – | – | – | –
2 | 5420 ng·h/mL | 7.23 h | 2.64e-05 s⁻¹ | 433 ng/mL | 8.31 h | 5.67 h | COCCN1CCN2c3cc4c(N[C@H](C)c5cccc(C(F)F)c5F)nc(C)nc4cc3OCC[C@H]2C1 | – | – | – | – | – | – | – | –
3 | 10700 ng·h/mL | 7.39 h | 2.61e-05 s⁻¹ | 645 ng/mL | 7.64 h | 3 h | Cc1nc(N[C@H](C)c2cccc(C(F)F)c2F)c2cc3c(cc2n1)OCC[C@H]1CN(CC2COC2)CCN31 | – | – | – | – | – | – | – | –

Second part, the compound before the results:

Row | SMILES | AUC at 24 h [2] | half-life at 24 h [3] | k el at 24 h [4] | Cmax at 24 h [5] | MRT at 24 h [6] | Tmax at 24 h [7] | pIC50 [1] | fraction unbound at 1 h, 2 µM [8] | fraction unbound at 1 h, 2 µM [9] | Activity [10] | Activity [11] | fraction unbound at 1 h, 2 µM [12] | fraction unbound at 1 h, 2 µM [13] | pIC50 [14]
4 | Cc1nc(N[C@H](C)c2cccc(C(F)F)c2F)c2cc3c(cc2n1)OCC[C@H]1CN(CC#N)CCN31 | – | – | – | – | – | – | 7.15 | – | – | – | – | – | – | –
5 | Cc1nc(N[C@H](C)c2cccc(C(F)F)c2F)c2cc3c(cc2n1)OCC[C@H]1CN(C(=O)C2COC2)CCN31 | 1610 ng·h/mL | 1.36 h | 0.000142 s⁻¹ | 885 ng/mL | 1.7 h | 0.38 h | – | – | – | – | – | – | – | –
6 | Cc1nc(N[C@H](C)c2cccc(C(F)F)c2F)c2cc3c(cc2n1)OCC[C@H]1CN(C(=O)[C@@H]2CCOC2)CCN31 | 7490 ng·h/mL | 2.29 h | 8.39e-05 s⁻¹ | 1450 ng/mL | 2.89 h | 0.417 h | – | 0.006 | 0.001 | Non-Toxic | Non-Toxic | 0.001 | 0.001 | –
7 | Cc1nc(N[C@H](C)c2cccc(C(F)F)c2F)c2cc3c(cc2n1)OC[C@H]1CN(C(=O)C2(C#N)CC2)CCN31 | – | – | – | – | – | – | 7.89 | – | – | – | – | – | – | 8.08
8 | Cc1nc(N[C@H](C)c2cccc(C(F)F)c2F)c2cc3c(cc2n1)OCC[C@H]1CN(c2ccnn2C)CCN31 | 48800 ng·h/mL | 2.61 h | 7.36e-05 s⁻¹ | 4690 ng/mL | 4.47 h | 0.33 h | – | 0.079 | 0.015 | Non-Toxic | Non-Toxic | 0.107 | 0.01 | –
9 | Cc1nc(N[C@H](C)c2cccc(C(F)F)c2F)c2cc3c(cc2n1)OCC[C@H]1CN(C(=O)c2cccnc2)CCN31 | 3180 ng·h/mL | 1.47 h | 0.000135 s⁻¹ | 1580 ng/mL | 1.78 h | 0.333 h | – | – | – | – | – | – | – | –

Reference: ChEMBL document CHEMBL5104195, “Discovery of Orally Bioavailable SOS1 Inhibitors for Suppressing KRAS-Driven Carcinoma” (J Med Chem, 2022)
